Marks after values point to notes of the source that are not given here. Primed or numbered codes have the meaning given here. Peptide text beside a SMILES is read from it. * marks the point of attachment. Cholyl = C[C@H](CCC(=O)*)[C@H]1CC[C@H]2[C@@H]3[C@H](O)C[C@@H]4C[C@H](O)CC[C@]4(C)[C@H]3C[C@H](O)[C@]12C; Adp″ = aminoethyldibenzofuranylpropanoic acid, NCCc1cccc2c1oc1c(CCC(=O)*)cccc12; NMeV = CN[C@H](C(=O)O)C(C)C; CA = not defined here
Target: T1, Aβ1-40 (Homo sapiens, UniProt P05067)
T1 construct: (β-AP1-40) was obtained commercially from Bachem (Torrance, Calif.); purchased Bachem (Torrance, Calif.)
Experiment: Nucleation assay (turbidity, A405 nm);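 note: synthetic Aβ monomer polymerization followed by turbidity in 96-well plates with continuous shaking, read every 15 minutes over 5 hours, compared against wells lacking test compound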
Type: biochemical

[1] = Table V, 100 mole % inhibitor relative to Aβ1-40
[2] = Table V, 100 mole % inhibitor, read-out: % Inucl'n (percent reduction in maximum observed turbidity)

T1 sequence (P05067 672-711): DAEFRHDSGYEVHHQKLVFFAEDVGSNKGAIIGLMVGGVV

Compound | Fold Increase in Lag Time (Table IV, 100 mole %) | ΔLag (ratio of lag time with test compound to lag time of control) [1] | inhibition at 100 mol % [2] | also measured
CC(C)C[C@H](NC(=O)[C@H](CCCCN)NC(=O)[C@H](CCC(N)=O)NC(=O)[C@H](Cc1c[nH]cn1)NC(=O)[C@H](Cc1c[nH]cn1)NC(=O)CC[C@@H](C)[C@H]1CC[C@H]2[C@@H]3[C@H](O)C[C@@H]4C[C@H](O)CC[C@]4(C)[C@H]3C[C@H](O)[C@]12C)C(=O)N[C@H](C(=O)N[C@@H](Cc1ccccc1)C(=O)N[C@@H](Cc1ccccc1)C(=O)O)C(C)C [PPI-347, cholyl-Aβ13-20] (Cholyl-HHQKLVFF-OH) | – | – | – | Fold Increase in Lag Time (Table III, 33 mole %): 2.6 fold; Fold Increase in Lag Time (Table IV, 10 mole %): 2.2 fold
CC(C)C[C@H](NC(=O)[C@H](CCCCN)NC(=O)[C@H](CCC(N)=O)NC(=O)[C@H](Cc1c[nH]cn1)NC(=O)CC[C@@H](C)[C@H]1CC[C@H]2[C@@H]3[C@H](O)C[C@@H]4C[C@H](O)CC[C@]4(C)[C@H]3C[C@H](O)[C@]12C)C(=O)N[C@H](C(=O)N[C@@H](Cc1ccccc1)C(=O)N[C@@H](Cc1ccccc1)C(=O)O)C(C)C [PPI-348, cholyl-Aβ14-20] (Cholyl-HQKLVFF-OH) | – | – | – | Fold Increase in Lag Time (Table III, 33 mole %): 2.0 fold; inhibition at 33 mol % (Table V, 33 mol % inhibitor, read-out: % Inucl'n (percent reduction in maximum observed turbidity)): 70%; ΔLag (ratio of lag time with test compound to lag time of control) (Table V, 33 mole % inhibitor): 2.0
C[C@H](NC(=O)[C@H](C)NC(=O)[C@H](C)NC(=O)[C@H](C)NC(=O)[C@H](C)NC(=O)CC[C@@H](C)[C@H]1CC[C@H]2[C@@H]3[C@H](O)C[C@@H]4C[C@H](O)CC[C@]4(C)[C@H]3C[C@H](O)[C@]12C)C(=O)O [PPI-365, Cholyl-penta-alanine] | ~1 fold | 0.8 | -7% | –
CC(C)C[C@H](NC(=O)[C@H](CCCCN)NC(=O)[C@H](CCC(N)=O)NC(=O)CC[C@@H](C)[C@H]1CC[C@H]2[C@@H]3[C@H](O)C[C@@H]4C[C@H](O)CC[C@]4(C)[C@H]3C[C@H](O)[C@]12C)C(=O)N[C@H](C(=O)N[C@@H](Cc1ccccc1)C(=O)O)C(C)C [PPI-366] (Cholyl-QKLVF-OH) | 3.1 fold | 3.1 | -23% | Fold Increase in Lag Time (Table IV, 10 mole %): 1.6 fold
CC(C)C[C@H](NC(=O)[C@H](CCCCN)NC(=O)CC[C@@H](C)[C@H]1CC[C@H]2[C@@H]3[C@H](O)C[C@@H]4C[C@H](O)CC[C@]4(C)[C@H]3C[C@H](O)[C@]12C)C(=O)N[C@H](C(=O)N[C@@H](Cc1ccccc1)C(=O)N[C@@H](Cc1ccccc1)C(=O)O)[C@@H](C)O [PPI-369] (Cholyl-KLTFF-OH) | ~1 fold | 1.1 | -16% | –
CC(C)C[C@H](NC(=O)[C@H](CCCCN)NC(=O)CC[C@@H](C)[C@H]1CC[C@H]2[C@@H]3[C@H](O)C[C@@H]4C[C@H](O)CC[C@]4(C)[C@H]3C[C@H](O)[C@]12C)C(=O)N[C@H](C(=O)N[C@@H](C)C(=O)N[C@@H](Cc1ccccc1)C(=O)O)C(C)C [PPI-370, cholyl-Aβ16-20 Phe19->Ala] (Cholyl-KLVAF-OH) | 2.6 fold | 2.6 | 73% | –
CC(C)C[C@H](NC(=O)[C@H](CCCCN)NC(=O)CCCC[C@@H]1SC[C@@H]2NC(=N)N[C@@H]21)C(=O)N[C@H](C(=O)N[C@@H](Cc1ccccc1)C(=O)N[C@@H](Cc1ccccc1)C(=O)O)C(C)C [PPI-374, iminobiotinyl-Aβ16-20] | 1.3 fold | 1.3 | 86% | –
CC(C)C[C@H](NC(=O)[C@@H](N)CCCCN)C(=O)N[C@H](C(=O)N[C@@H](Cc1ccccc1)C(=O)N[C@@H](Cc1ccccc1)C(=O)O)C(C)C [PPI-377, Aβ16-20] | – | – | 0% | –
CC(C)C[C@H](N)C(=O)N[C@H](C(=O)N[C@@H](Cc1ccccc1)C(=O)N[C@@H](Cc1ccccc1)C(=O)N[C@@H](C)C(=O)O)C(C)C [PPI-386] | – | – | – | % Inucl'n (percent reduction in maximum observed turbidity) (Table V, 100 mole % inhibitor): 15%
CC(C)C[C@H](NC(=O)OC(C)(C)C)C(=O)N[C@H](C(=O)N[C@@H](Cc1ccccc1)C(=O)N[C@@H](Cc1ccccc1)C(=O)N[C@@H](C)C(=O)O)C(C)C [PPI-435] | – | – | – | % Inucl'n (percent reduction in maximum observed turbidity) (Table V, 100 mole % inhibitor): −5%
PPI-315: CA-HQKLVFF-nh2 (N-terminal CA cap; C-terminal amide) | – | – | – | % Inucl'n (percent reduction in maximum observed turbidity) (Table V, 33 mol % inhibitor): 5** %
PPI-403: h-DDIII(N-Me-Val)DLL(Adp)-HQKLVFF-oh ({H2N-Asp-Asp-Ile-Ile-Ile-NMeV-Asp-Leu-Leu-Adp″}-HQKLVFF-OH) | – | 1.4 | – | % Inucl'n (percent reduction in maximum observed turbidity) (Table V, 100 mole % inhibitor): −75%
PPI-407: CA-LVFFK-oh | – | – | – | % Inucl'n (percent reduction in maximum observed turbidity) (Table V, 33 mol % inhibitor): 100** %
PPI-418: h-(Aic)-LVFFA-oh | – | – | – | % Inucl'n (percent reduction in maximum observed turbidity) (Table V, 33 mol % inhibitor): 100** %
PPI-438: CA-GFF-oh ({CA}-Gly-Phe-Phe-OH; reading uncertain; also: printed as PPI-438: CA-GFF-oh) | – | 1.0 | – | % Inucl'n (percent reduction in maximum observed turbidity) (Table V, 100 mole % inhibitor): 0%

Reference: patent publication US20110009343A1, “MODULATORS OF AMYLOID AGGREGATION” (Praecis Pharmaceuticals, Inc., priority 1995, published 2011)
